Earlier results in patent US20090148532A1, “Preparation of controlled release skeletal muscle relaxant dosage forms” (priority 2007, published 2009).

Details: after oral administration

With `CN(C)CCC=C1c2ccccc2C=Cc2ccccc21` [Cyclobenzaprine] as the compound, how does the Elimination half-life read?
Its Elimination half-life is “one to three”.
